Experiments:
Assay in all cases: Greenhouse test, post-emergence treatment
Details in all cases: application rate 0.5 kg/ha, scale 0 to 100
[1] = system: AMARE; assay type: in vivo, Amaranthus retroflexus
Description: (§1) The culture containers used were plastic flowerpots containing loamy sand with approximately 3.0% of humus as the substrate. The seeds of the test plants were sown separately for each species.
(§2) For the post-emergence treatment, the test plants were first grown to a height of […], depending on the plant habit, and only then treated with the active ingredients which had been suspended or emulsified in water. For this purpose, the test plants were either sown directly and grown in the same containers, or they were first grown separately as seedlings and transplanted into the test containers a few days prior to treatment.
(§3) Depending on the species, the plants were kept at 10-25° C. or 20-35° C., respectively.
(§4) The test period extended over 2 to 4 weeks. During this time, the plants were tended, and their response to the individual treatments was evaluated.
(§5) Evaluation was carried out using a scale from 0 to 100. 100 means no emergence of the plants, or complete destruction of at least the aerial moieties, and 0 means no damage, or normal course of growth. A moderate herbicidal activity is given at values of at least 60, a good herbicidal activity is given at values of at least 70, and a very good herbicidal activity is given at values of at least 85.

[2] = system: ABUTH; assay type: in vivo, Abutilon theophrasti
Description: as §1, §2, §3, §4, §5

[3] = system: ECHCG; assay type: in vivo, Echinocloa crus-galli
Description: as §1, §2, §3, §4, §5

`CC(c1nc(N)nc(Nc2c(F)c(F)cc(F)c2F)n1)C1CC1` (stereo not drawn) [Example 5, 6-(1-cyclopropylethyl)-N4-(2,3,5,6-tetrafluorophenyl)-1,3,5-triazine-2,4-diamine] was tested, and the herbicidal activity [1] was “very good herbicidal activity (a very good herbicidal activity is given at values of at least 85)”, the herbicidal activity [2] was “very good herbicidal activity (a very good herbicidal activity is given at values of at least 85)” and the herbicidal activity [3] was “very good herbicidal activity (a very good herbicidal activity is given at values of at least 85)”.

Source: patent US9999222B2, “Herbicidal combination comprising azines” (BASF SE, priority 2014, dated 2018)
